{
  "source": "paper PMC4579270",
  "about": "“Identification and Characterization of an Irreversible Inhibitor of CDK2” (Chemistry & Biology, 2015)",
  "experiment_in_all_cases": "Dundee kinase screen re-test (standard format and 4 hour pre-incubation)",
  "format_in_all_cases": "biochemical",
  "key": {"EPH-B3": {"molecular_target": "T1, EPH-B3 (Homo sapiens, UniProt P54753)", "T1 sequence (P54753 34-998)": "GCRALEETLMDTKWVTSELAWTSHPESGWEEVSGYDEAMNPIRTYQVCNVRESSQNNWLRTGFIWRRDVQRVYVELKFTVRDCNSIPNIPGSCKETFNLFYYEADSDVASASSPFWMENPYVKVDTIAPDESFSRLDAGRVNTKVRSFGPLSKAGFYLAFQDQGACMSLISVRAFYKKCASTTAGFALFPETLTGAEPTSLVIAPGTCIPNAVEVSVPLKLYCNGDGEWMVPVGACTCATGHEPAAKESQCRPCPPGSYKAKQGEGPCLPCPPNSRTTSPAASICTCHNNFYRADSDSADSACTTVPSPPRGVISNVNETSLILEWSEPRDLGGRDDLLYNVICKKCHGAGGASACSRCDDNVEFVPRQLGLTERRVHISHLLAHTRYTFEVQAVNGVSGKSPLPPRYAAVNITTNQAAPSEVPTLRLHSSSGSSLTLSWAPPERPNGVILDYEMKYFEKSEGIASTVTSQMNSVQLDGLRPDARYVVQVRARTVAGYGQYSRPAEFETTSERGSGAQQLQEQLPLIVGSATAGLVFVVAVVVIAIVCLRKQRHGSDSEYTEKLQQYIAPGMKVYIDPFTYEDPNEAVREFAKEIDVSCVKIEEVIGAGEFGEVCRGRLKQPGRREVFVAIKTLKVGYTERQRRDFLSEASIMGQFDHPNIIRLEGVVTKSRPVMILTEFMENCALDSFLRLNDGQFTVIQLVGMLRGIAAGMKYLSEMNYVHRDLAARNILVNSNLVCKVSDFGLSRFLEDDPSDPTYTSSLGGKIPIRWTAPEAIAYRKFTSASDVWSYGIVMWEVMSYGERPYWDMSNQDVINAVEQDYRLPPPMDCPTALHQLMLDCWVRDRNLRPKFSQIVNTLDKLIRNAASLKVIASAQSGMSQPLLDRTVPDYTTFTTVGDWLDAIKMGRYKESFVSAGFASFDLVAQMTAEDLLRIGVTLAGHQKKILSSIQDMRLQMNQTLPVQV", "conditions": "EPH-B3, 0.5µM", "method": "(§1) Prior to determining its cellular activity, we carried out a screen to assess its selectivity against a panel of 131 protein kinases under conditions that would not distinguish between a reversible or irreversible mode of action. […] These 13 kinases and 29 additional kinases, selected for their known sensitivity to other inhibitors within the purine series, were then tested in a modified screening format in which the assay was repeated following a 4-hr pre-incubation (Table S3B). […] However, conformational flexibility around the active site may promote such an interaction with a residue from another part of the structure ([Martin et al., 2012]).\n(§2) Table S3, Related to Figure 4. NCL-0006300 protein kinase selectivity. […]\n(§3) Dundee protein kinase screen (Bain et al., 2007). […]\n(§4) (B) Selected kinases were re-tested in the Dundee kinase screen against NU6300 at a single concentration of 0.5 µM both in the standard assay format and following a 4 hour pre-incubation in the presence of NU6300. Kinases which have very low activity after the 4 hour incubation so that results might not be wholly reliable are boxed in salmon. Kinases where the activity after a 4 hour pre-incubation is < 50% that in the standard assay format are highlighted in red."}, "TBK1": {"molecular_target": "T2, TBK1 (Homo sapiens, UniProt Q9UHD2)", "T2 sequence (Q9UHD2 1-729)": "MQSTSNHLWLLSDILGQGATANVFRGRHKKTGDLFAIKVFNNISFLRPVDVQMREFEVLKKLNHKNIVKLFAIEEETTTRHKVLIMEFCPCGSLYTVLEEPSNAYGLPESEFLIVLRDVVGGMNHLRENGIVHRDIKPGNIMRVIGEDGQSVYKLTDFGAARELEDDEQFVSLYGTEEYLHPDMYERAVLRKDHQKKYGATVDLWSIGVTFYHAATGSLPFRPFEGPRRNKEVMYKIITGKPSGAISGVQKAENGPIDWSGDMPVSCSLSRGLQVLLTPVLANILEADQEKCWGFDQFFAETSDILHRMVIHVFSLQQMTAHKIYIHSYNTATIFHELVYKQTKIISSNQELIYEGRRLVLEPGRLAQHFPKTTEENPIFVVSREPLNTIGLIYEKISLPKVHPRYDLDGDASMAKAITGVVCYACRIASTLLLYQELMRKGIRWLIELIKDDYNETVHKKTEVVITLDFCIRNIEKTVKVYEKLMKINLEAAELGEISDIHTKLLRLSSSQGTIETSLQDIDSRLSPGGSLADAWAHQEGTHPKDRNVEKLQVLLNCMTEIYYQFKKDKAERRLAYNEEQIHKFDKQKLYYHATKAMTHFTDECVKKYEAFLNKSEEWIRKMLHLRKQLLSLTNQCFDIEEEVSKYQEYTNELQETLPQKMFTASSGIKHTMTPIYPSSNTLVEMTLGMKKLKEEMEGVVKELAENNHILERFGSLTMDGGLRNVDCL", "conditions": "TBK1, 0.5µM", "method": "as §1, §2, §3, §4"}, "CDK2-Cyclin A": {"molecular_target": "CDK2-Cyclin A (Homo sapiens, UniProt P24941)", "conditions": "for remaining activity at 0.5 µM: CDK2/cyclin A", "method": "as §1, §2, §3, §4"}, "[1]": {"conditions": "4hr RT preincubation, read-out: %Remaining activity at 0.5µM NU6300 - 4hr RT preincubation"}, "[2]": {"conditions": "usual format, read-out: %Remaining activity at 0.5µM NU6300 - Usual assay format"}},
  "note": "Where two headings read alike, the source gives them in different places.",
  "data": [
    {"smiles": "C=CS(=O)(=O)c1ccc(Nc2nc(OCC3CCCCC3)c3nc[nH]c3n2)cc1", "note": "[NU6300, 6-(cyclohexylmethoxy)-N-(4-(vinylsulfonyl)phenyl)-9H-purin-2-amine]", "values": [
      {"measurement": "remaining activity at 0.5 µM", "setting": "EPH-B3; [1]", "value": 17, "unit": "%"},
      {"measurement": "remaining activity at 0.5 µM", "setting": "EPH-B3; [2]", "value": 12, "unit": "%"},
      {"measurement": "remaining activity at 0.5 µM", "setting": "TBK1; [1]", "value": 75, "unit": "%"},
      {"measurement": "remaining activity at 0.5 µM", "setting": "TBK1; [2]", "value": 62, "unit": "%"},
      {"measurement": "remaining activity at 0.5 µM", "setting": "CDK2-Cyclin A; [1]", "value": 9, "unit": "%"},
      {"measurement": "remaining activity at 0.5 µM", "setting": "CDK2-Cyclin A; [2]", "value": 26, "unit": "%"},
      {"measurement": "additional loss of activity after pre-incubation", "setting": "CDK2-Cyclin A; CDK2, 4-hr pre-incubation vs usual format, 0.5 µM", "value": "> 50", "unit": "%"}
    ]}
  ]
}
